Source: patent US20020068367A1, “Linker and method for solid phase combinatorial synthesis” (priority 2000, published 2002)
One block for each molecule: values may come before it.

Columns and labels:
fluorescein-streptavidin = target: T1, fluorescein-streptavidin (Streptomyces avidinii, UniProt P22629); assay: Standard protein-binding assay: fluorescein-streptavidin binding to linker on streptavidin-coated 96-well plates; details: for Fluorescence emission detected (qualitative): linker and fluorescein-labeled protein present
T1 construct: purchased Calbiochem-Novabiochem Corp., La Jolla, Calif; 189734
Source text: (§1) Referring to the drawings, and particularly to FIG. 1, generic reactions illustrating two variations of the screening system of the present invention are shown. FIGS. 1a-1d illustrate the generic System 1 reaction wherein a compound comprised of a tether connecting biotin with a chemical compound containing a nitrophenyl group is applied to a streptavidin coated solid phase. The amount of fluorescein-protein complex (c), where the exemplary protein is fluorescein-anti-DNP antibody, bound to the biotin-tether-nitrophenyl complex is characterized by detecting the magnitude of fluorescence emission in each individual well at the completion of the reaction. Similarly, FIG. 1e-1h illustrates the generic System 2 reaction wherein a tether connects 2 biotin groups together and streptavidin is coated on the solid phase. As in the System 1 reaction, the amount of fluorescein-protein complex (g), where the exemplary protein is fluorescein-streptavidin, bound to the biotin-tether-biotin complex is characterized through the detection of fluorescence emissions in each individual well at the completion of the reaction.
In the quantification of the interaction between fluoresceinated-proteins and linkers is characterized by detecting the magnitude of fluorescence emissions in each individual well at the completion of standard protein-binding assay procedures.
(§2) A standard protein-binding assay comprises a multi-step process in which strepeavidin pre-treated 96-well plates are exposed to a solution containing linker followed by exposure to a solution containing fluorescein-labeled protein. The 96-well plates are coated with a commercially available streptavidin solution (cat #BPS00100; Xenopore Corp., Hawthorne, N.J.) and then pre-incubated with 300 μl PBS buffer for 10 minutes at room temperature. To complete the pre-incubation process, the PBS buffer is discarded and the plates are further washed five times with water. Once the plate is sufficiently washed, add to the wells 100 μl of pre-mixed binding buffer containing the desired linker, the preparation of which is as described above. After addition of the linker solution, the plate is incubated at 37° C. for one hour. Upon completion of incubation, the linker solution is discarded and the plate is washed with five changes of water. For the fifth step of the assay process, 100 μl of a premixed reaction solution containing 1 M Tris, 0.5 M NaCl and the fluorescein-labeled proteins are added to selected wells of the plate with bound linker. The fluorescein conjugated proteins, anti-dinitrophenyl antibody (rabbit IgG fraction, cat #A-6423) (anti-DNP) and streptavidin (cat #189734) are commercially available from Molecular Probes, Inc., Eugene, Oreg. and Calbiochem Inc., San Diego, Calif. Upon addition of the protein solutions, the plate is further incubated at 37° C. for one hour. Following the incubation period, the reacting solution in each well is discarded and the wells are washed with five changes of 1 M Tris or 30 changes of water. After this final washing step, 250 μl of elution buffer containing 0.5 mM NaOH, methanol and 20 mM EDTA is added to each well and the plate is read using a Spectra MAX Gemini fluorescein plate reader (Molecular Devices Corp., Sunnyvale, Calif.).
Using the standard protein-binding assay described above, linkers 1-7 are evaluated for their ability to bind fluorescein-streptavidin or fluorescein-anti-DNP. The detection of fluorescence emission beyond that of the control would indicate that the fluorescein labeled protein has bound to the corresponding linker. Lack of fluorescence emission would indicate that either the linker or the fluorescein-bound proteins are absent, or that an improper linker was used. This may be interpreted as meaning that the protein of interest, in this exemplary example streptavidin or anti-DNP, “recognizes” the particular library compound being used in the experiment. […]

[1] = system: fluorescein-anti-DNP antibody (rabbit IgG fraction); assay: Standard protein-binding assay: fluorescein-anti-DNP binding to linker on streptavidin-coated 96-well plates
Source text: as §1, §2
Using the standard protein-binding assay described above, linkers 1-7 are evaluated for their ability to bind fluorescein-streptavidin or fluorescein-anti-DNP. The detection of fluorescence emission beyond that of the control would indicate that the fluorescein labeled protein has bound to the corresponding linker. Lack of fluorescence emission would indicate that either the linker or the fluorescein-bound proteins are absent, or that an improper linker was used. This may be interpreted as meaning that the protein of interest, in this exemplary example streptavidin or anti-DNP, “recognizes” the particular library compound being used in the experiment. It is this “recognition” that constitutes the use of these plate libraries as “affinity probes”. While preliminary test results are reported for all of the tested linkers, particular emphasis will be on the data derived from testing of linkers 3 and 5. […]

SMILES: O=C(CCCCC1SCC2NC(=O)NC21)NCCCOCCOCCOCCCNC(=O)CCCCC1SCC2NC(=O)NC21 (stereo not shown) [Linker 1]
Fluorescence emission detected (qualitative) (fluorescein-streptavidin): No fluorescence emission was detected

SMILES: O=C(CCCCCNC(=O)CCCCC1SCC2NC(=O)NC21)NCCCCCNC(=O)CCCCCNC(=O)CCCCC1SCC2NC(=O)NC21 (stereo not shown) [Linker 2]
Fluorescence emission (fluorescein-streptavidin; Linker 2 62.5 nmol, no streptavidin-fluorescein (control)): 583
Fluorescence emission (fluorescein-streptavidin; Linker 2 62.5 nmol, streptavidin-fluorescein 73.5 pmol): 652
Fluorescence emission detected (qualitative) (fluorescein-streptavidin): Fluorescence emissions were detected

SMILES: O=C(CCCCC1SCC2NC(=O)NC21)NCCCCCC(=O)NCCCOCCOCCOCCCNC(=O)COCC(=O)NCCCOCCOCCOCCCNC(=O)CCCCC1SCC2NC(=O)NC21 (stereo not shown) [Linker 4]
Fluorescence emission (fluorescein-streptavidin; Linker 4 5 nmol, no streptavidin-fluorescein (control)): 122
Fluorescence emission (fluorescein-streptavidin; Linker 4 5 nmol, streptavidin-fluorescein 100 pmol): 218
Fluorescence emission detected (qualitative) (fluorescein-streptavidin): Fluorescence emissions were detected

Increase in fluorescence emission ([1]; 100-fold increase in linker 5 concentration): 2.5 fold
Fluorescence emission ([1]; [5] 50.0 nmol, fluorescein-anti-DNP 266 pmol): 197.62
Fluorescence emission ([1]; [5] 100.0 nmol, fluorescein-anti-DNP 266 pmol): 176.22
Fluorescence emission ([1]; [5] 200.0 nmol, fluorescein-anti-DNP 266 pmol): 172.66
Fluorescence emission ([1]; [5] 300.0 nmol, fluorescein-anti-DNP 266 pmol): 180.98
Fluorescence emission ([1]; [5] 400.0 nmol, fluorescein-anti-DNP 266 pmol): 225.98
Fluorescence emission ([1]; [5] 500.0 nmol, fluorescein-anti-DNP 266 pmol): 224.27
Fluorescence emission ([1]; [5] 1000.0 nmol, fluorescein-anti-DNP 266 pmol): 211.7
Fluorescence emission ([1]; [5] 2000.0 nmol, fluorescein-anti-DNP 266 pmol): 351.7
Fluorescence emission ([1]; [5] 3000.0 nmol, fluorescein-anti-DNP 266 pmol): 369.58
Fluorescence emission ([1]; [5] 4000.0 nmol, fluorescein-anti-DNP 266 pmol): 516.83
Fluorescence emission ([1]; [5] 5000.0 nmol, fluorescein-anti-DNP 266 pmol): 543.9
Fluorescence emission ([1]; linker 5 50 nmol, [α-DNP] 0 pmol (linker only)): 76.392
Fluorescence emission ([1]; linker 5 50 nmol, [α-DNP] 2.6 pmol): 101.45
Fluorescence emission ([1]; linker 5 50 nmol, [α-DNP] 5.3 pmol): 109.82
Fluorescence emission ([1]; linker 5 50 nmol, [α-DNP] 10.0 pmol): 129.19
Fluorescence emission ([1]; linker 5 50 nmol, [α-DNP] 16.0 pmol): 137.9
Fluorescence emission ([1]; linker 5 50 nmol, [α-DNP] 21.0 pmol): 160.48
Fluorescence emission ([1]; linker 5 50 nmol, [α-DNP] 27.0 pmol): 204.54
Fluorescence emission ([1]; linker 5 50 nmol, [α-DNP] 53.0 pmol): 306.3
Fluorescence emission ([1]; linker 5 50 nmol, [α-DNP] 106.0 pmol): 473.57
Fluorescence emission ([1]; linker 5 50 nmol, [α-DNP] 159.0 pmol): 615.29
Fluorescence emission ([1]; linker 5 50 nmol, [α-DNP] 212.0 pmol): 599.48
Fluorescence emission ([1]; linker 5 50 nmol, [α-DNP] 266.0 pmol): 561.46
Increase in fluorescence emission ([1]; linker 5, 10-fold increase in fluorescein-anti-DNP concentration (5.3 to 53 pmol)): approximately 3 fold
SMILES: O=C(CCCCCNC(=O)CCCCC1SCC2NC(=O)NC21)NCCCCCNC(=O)CCCCCNc1ccc([N+](=O)[O-])cc1[N+](=O)[O-] (stereo not shown) [Linker 5]
Effect on binding capacity of fluorescein-anti-DNP ([1]; generic System 1): significantly enhances the binding capacity

SMILES: O=C(CCCCCNc1ccc([N+](=O)[O-])cc1[N+](=O)[O-])NCCCOCCOCCOCCCNC(=O)COCC(=O)NCCCOCCOCCOCCCNC(=O)CCCCC1SCC2NC(=O)NC21 (stereo not shown) [Linker 7]
Fluorescence emission (fluorescein-streptavidin; Linker 7 5 nmol, no streptavidin-fluorescein (control)): 112
Fluorescence emission (fluorescein-streptavidin; Linker 7 5 nmol, streptavidin-fluorescein 266 pmol): 208
Fluorescence emission detected (qualitative) (fluorescein-streptavidin): Fluorescence emissions were detected

SMILES: NCCCCCNC(=O)CCCC[C@@H]1SC[C@@H]2NC(=O)N[C@@H]21 [Linker B-1596, reference compound]
Fluorescence emission (fluorescein-streptavidin; pre-linker B-1596 50 nmol replacing linker 3, streptavidin-fluorescein 100 pmol): remained at a level similar to reactions where no linker was used
